Test results reported in publication PMC9262584 (2022).

Legend:
Test in all cases: ITC
Details in all cases: 50 mM KCl, 5 mM MgCl2 (RNA wash buffer); 50 mM Bis-Tris pH 6.1; individual ITC conditions in SI Figures S11/S12
[1] = tested on: pilM^84 (RNA, riboswitch) GAUAUCGACAAUACUAAACCAUCCGCGAGGGUGGGACGGAAAGCCUACAGGGUCUCUCUGAGACAGCCGGGAUGCCGAAAUAUC
[2] = tested on: pilM^102 (RNA, riboswitch) GAUAUCGACAAUACUAAACCAUCCGCGAGGGUGGGACGGAAAGCCUACAGGGUCUCUCUGAGACAGCCGGGAUGCCGAAAUAUCACAAUUCGUGAUGCUCGG
[3] = tested on: pilM^80 (RNA, riboswitch) GAUAUCGACAAUACUAAACCAUCCGCGAGGGUGGGACGGAAAGCCUACAGGGUCUCUCUGAGACAGCCGGGAUGCCGAAA
[4] = tested on: pilM^79 (RNA, riboswitch) GAUAUCGACAAUACUAAACCAUCCGCGAGGGUGGGACGGAAAGCCUACAGGGUCUCUCUGAGACAGCCGGGAUGCCGAA
[5] = tested on: pilM^95 (RNA, riboswitch) GAUAUCGACAAUACUAAACCAUCCGCGAGGGUGGGACGGAAAGCCUACAGGGUCUCUCUGAGACAGCCGGGAUGCCGAAAUAUCACAAUUCGUGA
[6] = tested on: pilM^100 (RNA, riboswitch) GAUAUCGACAAUACUAAACCAUCCGCGAGGGUGGGACGGAAAGCCUACAGGGUCUCUCUGAGACAGCCGGGAUGCCGAAAUAUCACAAUUCGUGAUGCUC
[7] = tested on: pilM^77 (RNA, riboswitch) GAUAUCGACAAUACUAAACCAUCCGCGAGGGUGGGACGGAAAGCCUACAGGGUCUCUCUGAGACAGCCGGGAUGCCG
[8] = tested on: pilM^105 (RNA, riboswitch) GAUAUCGACAAUACUAAACCAUCCGCGAGGGUGGGACGGAAAGCCUACAGGGUCUCUCUGAGACAGCCGGGAUGCCGAAAUAUCACAAUUCGUGAUGCUCGGUCC
[9] = tested on: pilM^83 (RNA, riboswitch) GAUAUCGACAAUACUAAACCAUCCGCGAGGGUGGGACGGAAAGCCUACAGGGUCUCUCUGAGACAGCCGGGAUGCCGAAAUAU
[10] = tested on: pilM^97 (RNA, riboswitch) GAUAUCGACAAUACUAAACCAUCCGCGAGGGUGGGACGGAAAGCCUACAGGGUCUCUCUGAGACAGCCGGGAUGCCGAAAUAUCACAAUUCGUGAUG
[11] = tested on: pilM^91 (RNA, riboswitch) GAUAUCGACAAUACUAAACCAUCCGCGAGGGUGGGACGGAAAGCCUACAGGGUCUCUCUGAGACAGCCGGGAUGCCGAAAUAUCACAAUUC
[12] = tested on: pilM^14-75 (RNA, riboswitch) GCUAAACCAUCCGCGAGGGUGGGACGGAAAGCCUACAGGGUCUCUCUGAGACAGCCGGGAUGC
[13] = tested on: pilM^82 (RNA, riboswitch) GAUAUCGACAAUACUAAACCAUCCGCGAGGGUGGGACGGAAAGCCUACAGGGUCUCUCUGAGACAGCCGGGAUGCCGAAAUA
[14] = tested on: pilM^88 (RNA, riboswitch) GAUAUCGACAAUACUAAACCAUCCGCGAGGGUGGGACGGAAAGCCUACAGGGUCUCUCUGAGACAGCCGGGAUGCCGAAAUAUCACAA
[15] = tested on: pilM^96 (RNA, riboswitch) GAUAUCGACAAUACUAAACCAUCCGCGAGGGUGGGACGGAAAGCCUACAGGGUCUCUCUGAGACAGCCGGGAUGCCGAAAUAUCACAAUUCGUGAU
[16] = tested on: pilM^109 (RNA, riboswitch) GAUAUCGACAAUACUAAACCAUCCGCGAGGGUGGGACGGAAAGCCUACAGGGUCUCUCUGAGACAGCCGGGAUGCCGAAAUAUCACAAUUCGUGAUGCUCGGUCCCGGC
[17] = tested on: pilM^75 (RNA, riboswitch) GAUAUCGACAAUACUAAACCAUCCGCGAGGGUGGGACGGAAAGCCUACAGGGUCUCUCUGAGACAGCCGGGAUGC
[18] = tested on: pilM^103 (RNA, riboswitch) GAUAUCGACAAUACUAAACCAUCCGCGAGGGUGGGACGGAAAGCCUACAGGGUCUCUCUGAGACAGCCGGGAUGCCGAAAUAUCACAAUUCGUGAUGCUCGGU
[19] = tested on: pilM^93 (RNA, riboswitch) GAUAUCGACAAUACUAAACCAUCCGCGAGGGUGGGACGGAAAGCCUACAGGGUCUCUCUGAGACAGCCGGGAUGCCGAAAUAUCACAAUUCGU
[20] = tested on: pilM^99 (RNA, riboswitch) GAUAUCGACAAUACUAAACCAUCCGCGAGGGUGGGACGGAAAGCCUACAGGGUCUCUCUGAGACAGCCGGGAUGCCGAAAUAUCACAAUUCGUGAUGCU
[21] = tested on: pilM^101 (RNA, riboswitch) GAUAUCGACAAUACUAAACCAUCCGCGAGGGUGGGACGGAAAGCCUACAGGGUCUCUCUGAGACAGCCGGGAUGCCGAAAUAUCACAAUUCGUGAUGCUCG
[22] = tested on: pilM^106 (RNA, riboswitch) GAUAUCGACAAUACUAAACCAUCCGCGAGGGUGGGACGGAAAGCCUACAGGGUCUCUCUGAGACAGCCGGGAUGCCGAAAUAUCACAAUUCGUGAUGCUCGGUCCC

KD [1]: 0.00044 ± 6e-05 mM | KD [2]: > >100 μM | KD [3]: 0.0085 ± 0.0014 mM | KD [4]: 0.017 ± 0.011 mM | KD [5]: 0.0016 ± 0.0006 mM | KD [6]: 0.0005 ± 0.0003 mM | KD [7]: 0.019 ± 0.019 mM | KD [8]: > >100 μM | KD [9]: 0.00167 ± 9e-05 mM | KD [10]: 0.0016 ± 0.0007 mM | KD [11]: 0.00032 ± 5e-05 mM | KD [12]: 0.012 ± 0.005 mM | KD [13]: 0.00212 ± 0.00017 mM | KD [14]: 0.00025 ± 4e-05 mM | KD [15]: 0.0029 ± 0.0015 mM | KD [16]: > >100 μM | KD [17]: > >100 μM | KD [18]: > >100 μM | KD [19]: 0.00038 ± 6e-05 mM | KD [20]: 0.00025 ± 4e-05 mM | KD [21]: 0.0013 ± 0.0005 mM | KD [22]: > >100 μM
SMILES: Nc1nc2c(ncn2[C@@H]2O[C@@H]3COP(=O)(O)O[C@H]4[C@@H](O)[C@H](n5cnc6c(N)ncnc65)O[C@@H]4COP(=O)(O)O[C@H]3[C@H]2O)c(=O)[nH]1
